Reference: the NIST ThermoML archive (doi:10.1021/acs.jced.9b00507)

Settings: 100 kPa, Liquid; for viscosity: Concentric cylinders viscometry; for mass density: Vibrating tube method

CCCCCCn1cc[n+](C)c1.O=[N+]([O-])[O-] [1-hexyl-3-methylimidazolium nitrate]
Settings	mass density [kg/m3]	viscosity [mPa·s]
293.15 K	1120.3	804.17
298.15 K	1117.5	545.25
303.15 K	1114.3	369.14
308.15 K	1111.1	257.59
313.15 K	1107.8	185.67
318.15 K	1104.7	140.18
323.15 K	1101.6	110.94
